{"source": "patent US20260146232A1", "about": "“METHODS FOR PROMOTING HOMING AND ENGRAFTMENT OF HEMATOPOIETIC STEM CELLS” (The Trustees of Indiana University, priority 2022, published 2026)", "key": {"[1]": {"test_system": "CXCR4", "assay": "Surface CXCR4 protein level (MFI) by flow cytometry", "type": "cell-based, human", "settings": "for CXCR4 protein level: siRNA knockdown", "source_text": "(§1) Human CD34^+ CB cell collection and culture. Umbilical CB units were supplied by Cleveland Cord Blood Bank and CordUse, Orlando, FL, USA. All studies were approved by the institutional review board of the IUSM. Mononuclear cells were isolated by density gradient centrifugation and CD34^+ cells were isolated by immunomagnetic selection kit (Miltenyi Biotec, 130-046-702). […] For molecular compound treatment, all reagents were ordered from Cayman Chemical (Ann Arbor, MI, USA). Briefly, molecular compounds were added in the initiation of human CB CD34^+ cells culture, the time and concentration of each molecular compound for cell treatment was shown in figure legends.\nFlow cytometry. Fresh or cultured CB cells were sorted for different phenotypes by using the following antibodies. Antibodies were used to detect CD34 (BV786, BD Biosciences, 744741), CD34 (FITC, BD Biosciences, 340668), CD45RA (Taxe-red, BD Biosciences, 562298), CD90 (BV421, BD Biosciences, 562556), CD49f (cy5.5, BD Biosciences, 562495), CD38 (PE, BD Biosciences, 560981). CD3 (BV421, BD Biosciences, 562427), CD33 (PE, BD Biosciences, 555450), CD19 (PE, BD Biosciences, 555413), CXCR4 (APC, BD Biosciences, 555976) and CD45 (APC, BD Biosciences, 555485). Gating strategy of phenotypic HSCs were shown in supplementary FIG. 2B."}, "[2]": {"test_system": "YTHDF2", "assay": "Relative YTHDF2 expression level in human CB CD34+ cells", "type": "cell-based", "settings": "siRNA 2 μM electroporated into human CB CD34+ cells", "source_text": "as §1\n(§2) RNA extraction and real-time PCR. After cells were harvested by FACS, RNA was extracted by a RNeasy Mini Kit following manufacturer's protocol (Qiagen, 74106). Total RNA was reverse-transcribed by use of Superscript III kit (ThermoFisher, 18080093). Quantitative real-time PCR reactions were performed by SYBR Green PCR Master Mix (Thermo Fisher, Florence, KY, USA) and an Agilent Mx3000P QPCR System. Expression of housekeeping gene GAPDH was used as an internal control. Data are shown as relative mRNA level normalized to levels in vehicle control, set to 1."}, "[3]": {"test_system": "CXCR4", "assay": "CXCR4 RNA level in human CB CD34+ cells", "type": "cell-based", "settings": "YTHDF2 knockdown by siRNA", "method": "as §2, with “1. SEQ ID NO: 1-16 are the primer sequences utilized.” for “1.”"}, "[4]": {"test_system": "YTHDF2 and CXCR4", "assay": "YTHDF2 binding level of CXCR4 (YTHDF2 RIP combined with RT-qPCR)", "type": "cell-based, human", "method": "RNA immunoprecipitation. RNA immunoprecipitation was performed as previously described^14. Briefly, 0.5-1×10^6 collected human CD34^+ cells were lysed in buffer A (20 mM Tris-Cl, pH 8.0; 100 mM NaCl, 1 mM EDTA, 0.5% NP-40, protease and RNase inhibitors) for 20 min at 4° C. After centrifugation for 5 min, 1/10th volume of cell lysate was saved as input. Anti-YTHDF2 (Abcam, ab220163) was prebound to the protein A/G beads and then reacted with the rest of the cell lysate overnight at 4° C. After elution from the beads, the RNA samples were precipitated with ethanol and dissolved in RNase-free water. RNAs were further purified with RNA Clean and Concentrator-5 (Zymo, R1013). The relative CXCR4 enrichment was determined by calculating the Ct values of the RIP sample relative to the input sample. Expression of non-m6a housekeeping gene ACTB was used as an internal control. Data are shown as relative binding level normalized to levels in sh-Control group, set to 1."}, "[5]": {"test_system": "m6A labelled CXCR4", "assay": "m6A enrichment on CXCR4 (m6A IP combined with RT-qPCR)", "type": "cell-based, human", "method": "M6A-RNA Immunoprecipitation. MeRIP analysis was used as previously described^15. Briefly, the total RNAs were extracted, and then RNA concentration was adjusted to 1 μg/μl. RNA was fragmented into ˜100 nt size and these RNA were immunoprecipitated with the anti-m6A antibody according to the standard protocol of the Magna MeRIP m6A Kit (Merck Millipore, 17-10499). M6A enrichment was determined by qPCR analysis."}, "[6]": {"test_system": "human CB CD34+ cells", "assay": "Chemotaxis (transwell migration) assay toward SDF-1, CB CD34+ cells", "type": "cell-based", "method": "(§3) Chemotaxis assay. Chemotaxis assays were performed in Costar 24-well trans-well plates with 6.5 mm diameter inserts with 5.0 μm pores (Corning, NY, USA). Briefly, 650 μL of IMDM medium (37° C.) that contained 0.5% bovine serum albumin (Sigma-Aldrich) and SDF-1 (0, 50 ng/mL) was added to the bottom well. Cells were suspended at 1×10^5 cells/100 μL in IMDM medium and loaded to the upper chamber of the trans-well. Trans-well plates were placed in a 37° C. incubator with 95% humidity and 5% CO2 for 4 hours. Percent migration was measured using flow cytometry with number of cells in the bottom chamber divided by number of cells placed in the upper chamber. To calculate the percent migration of CB HSCs, phenotypic HSCs was determined by surface staining and flow cytometry analysis. Human CB HSC chemotaxis was calculated as number of HSCs in the bottom chamber divided by number of HSCs loaded in the upper chamber. For AMD3100 administration, cells were treated with 5 μg/mL AMD3100 (239820, Sigma-Aldrich) for 30 min right before the chemotaxis assay."}, "[7]": {"test_system": "phenotypic HSC (CD34+ CD38- CD45RA- CD90+ CD49f+)", "assay": "Chemotaxis (transwell migration) assay toward SDF-1, phenotypic HSCs", "type": "cell-based, human", "method": "as §3"}, "[8]": {"test_system": "human CB CD34+ cells", "assay": "Homing assay of treated human CB CD34+ cells in NSG mice", "type": "in vivo", "settings": "500,000 cells", "method": "Homing assay. Homing of human CB CD34^+ cells was evaluated in NSG mice. Molecular compounds treated or siRNA transfected human CB CD34+ cells (500,000 for each mouse) were intravenously injected into sub-lethally irradiated (350 cGy) NSG mice. After 24 h, these recipient mice were sacrificed, BM cells from each mouse were collected. Cells were stained with anti-human CD45 antibody, then resuspended in 1% formaldehyde buffer. Flow cytometry analysis was performed to determine the percentage of human CD45^+ cells. BM cells from non-transplanted NSG mice served as negative controls."}, "[9]": {"test_system": "human CB CD34+ cells", "assay": "Long-term engraftment / limiting dilution analysis (LDA) in NSG mice", "type": "in vivo", "method": "Limiting dilution analysis (LDA). Frequency of human SCID repopulating cells (SRCs) was determined by LDA as reported before. Increasing doses of GFP overexpressing CD34^+ cells (2500, 5000 or 10000 cells) were intravenously injected into sublethally irradiated NSG recipient mice (350 cGy; 137Cs source, single dose). Four months after transplantation, the percentage of GFP^+ human CD45^+ cell chimerism was analyzed by immunostaining and flow cytometry. For long-term engraftment assays that assess the self-renewal capacity of HSC, 3×10^6 BM cells from primary recipients of the 10000-cell group were intravenously transplanted into secondary sub-lethally irradiated NSG recipient mice."}, "[10]": {"test_system": "FTO", "assay": "Relative FTO expression level by realtime PCR", "type": "cell-based", "settings": "AGII 4 μM, 20 hours, human CB CD34+ cells", "method": "Human CD34^+ CB cell collection and culture. Umbilical CB units were supplied by Cleveland Cord Blood Bank and CordUse, Orlando, FL, USA. All studies were approved by the institutional review board of the IUSM. Mononuclear cells were isolated by density gradient centrifugation and CD34^+ cells were isolated by immunomagnetic selection kit (Miltenyi Biotec, 130-046-702). The purity of human CD34^+ CB cells was over 90% and the cells were cultured in StemSpanII serum-free medium ([…] Technologies, 09650) supplemented with 100 ng/mL stem cell factor (SCF), 100 ng/mL FMS-like tyrosine kinase 3 ligand (Flt3L) and 100 ng/mL thrombopoietin (TPO). For molecular compound treatment, all reagents were ordered from Cayman Chemical (Ann Arbor, MI, USA). Briefly, molecular compounds were added in the initiation of human CB CD34^+ cells culture, the time and concentration of each molecular compound for cell treatment was shown in figure legends.\nas §2, with “Expression of housekeeping gene GAPDH was used as an internal control. Data are shown as relative mRNA level normalized to levels in vehicle control, set to 1.” left out"}, "[11]": {"test_system": "CB CD34+ cells", "assay": "Colony-forming unit (CFU) assay", "type": "cell-based, human", "settings": "AGII-treated CB CD34+ cells"}, "[12]": {"settings": "AGII-treated human CB CD34+ cells"}}, "data": [{"substance": "5′-TTGGCTATTGGGAACGTCCTT-3′ (partner strand not given here) [siRNA]", "values": [{"measurement": "CXCR4 protein level", "setting": "[1]; HSCs (CD34+ CD38- CD45RA- CD49f+ CD90+)", "result": "notably upregulated"}, {"measurement": "CXCR4 protein level", "setting": "[1]; human CB CD34+ cells", "result": "notably upregulated"}, {"measurement": "YTHDF2 expression at the RNA and protein level", "setting": "[2]", "result": "efficiently downregulated"}, {"measurement": "RNA level of CXCR4", "setting": "[3]", "result": "significantly upregulated"}, {"measurement": "binding level of YTHDF2 and CXCR4", "setting": "[4]; YTHDF2 knockdown by siRNA", "result": "significantly decreased"}, {"measurement": "expression level of m6A labelled CXCR4", "setting": "[5]; YTHDF2 knockdown by siRNA", "result": "greatly increased"}, {"measurement": "migration of CB CD34+ cells to SDF-1", "setting": "[6]; siRNA transfected cells", "result": "significant migration"}, {"measurement": "migration to SDF-1 in the HSC population", "setting": "[7]; siRNA transfected cells, SDF-1 50 ng/mL", "result": "Enhanced migration"}, {"measurement": "human CB CD34+ cell homing in NSG mice", "setting": "[8]; siRNA transfected, 24 hours", "result": "enhanced"}, {"measurement": "engraftment in secondary NSG mice", "setting": "[9]; BM cells from siRNA transfected group", "result": "enhanced engraftment"}, {"measurement": "increase in number of functionally detectable SRCs compared with control", "setting": "[9]; siRNA transfected group", "result": "~4", "unit": "fold"}, {"measurement": "SRC frequency (Poisson distribution analysis)", "setting": "[9]; siRNA transfected group, control 1/2439", "result": "1/667"}, {"measurement": "number of SRCs", "setting": "[9]; siRNA transfected group, control 410", "result": 1478, "unit": "SRCs in 1×10^6 cells"}, {"measurement": "human myeloid and B-cell chimerism", "setting": "[9]; siRNA transfected, BM 4 months", "result": "significantly increased"}, {"measurement": "engraftment vs control group", "setting": "[9]; siRNA transfected, PB at 2 and 4 months, BM at 4 months", "result": "enhanced engraftment"}]}, {"substance": "Angiotensin II [AGII, peptide hormone of the RAAS system]", "values": [{"measurement": "protein level of CXCR4", "setting": "[1]; AGII-treated vs vehicle", "result": "upregulates"}, {"measurement": "FTO expression", "setting": "[10]", "result": "significantly upregulated"}, {"measurement": "binding between YTHDF2 and CXCR4", "setting": "[4]; [12]", "result": "decreased"}, {"measurement": "relative m6A labeled CXCR4 level", "setting": "[5]; [12]", "result": "decreased"}, {"measurement": "human CB CD34+ cell migration toward graded doses of SDF-1", "setting": "[6]; AGII-treated cells", "result": "greatly enhanced"}, {"measurement": "chemotaxis to SDF-1 of HSCs", "setting": "[7]; AGII-treated cells", "result": "greatly enhanced"}, {"measurement": "homing to mouse BM", "setting": "[8]; 20 hours AGII treatment, 24 h after transplantation", "result": "dramatically promoted"}, {"measurement": "colony output vs vehicle", "setting": "[11]", "result": "no significant difference"}, {"measurement": "engraftment in NSG recipients vs control", "setting": "[9]; AGII-treated cells, 10,000 cells, PB and BM", "result": "significantly increased"}, {"measurement": "human myeloid and lymphoid cell chimerism", "setting": "[9]; AGII-treated cells, BM 4 months", "result": "increased"}, {"measurement": "SRC frequency (Poisson distribution analysis)", "setting": "[9]; AGII-treated cells, control 1/3984", "result": "1/1280"}, {"measurement": "number of SRCs", "setting": "[9]; AGII-treated cells, control 251", "result": 781, "unit": "SRCs"}, {"measurement": "engraftment in secondary transplantation vs control", "setting": "[9]; AGII-treated cells, secondary NSG mice at 4 months", "result": "enhanced engraftment"}]}]}
